Laboratory results as given in article PMC7248880, “Preclinical Incorporation Dosimetry of [^18F]FACH—A Novel ^18F-Labeled MCT1/MCT4 Lactate Transporter Inhibitor for Imaging Cancer Metabolism with PET” (Molecules, 2020).

Experiment: Preclinical incorporation dosimetry: whole-body PET/CT in piglets, scaled to human, OLINDA 2.1, ICRP103
Assay type: in vivo, juvenile pigs
Procedure: Three piglets (age: ~6 weeks, weight: ~13–15 kg) were fasted on the day of imaging and received an intranuscular. injection of 1 mL azaperone and 4 mL ketamine to introduce anesthesia. […] During narcosis, the animals maintained spontaneous respiration and no mandatory ventilation was applied. The subjects were sequentially imaged after an iv injection (contralateral ear vein) of 156 ± 54 MBq [^18F]FACH (0.63 ± 0.49 µg) in a PET/CT system (Biograph16, SIEMENS, Erlangen, Germany). The piglets were positioned prone with legs alongside the body on a custom-made plastic trough including a piglet head-holder (Figure 5). The PET acquisition was divided into a sequential (4 × 9 min, 3 × 12 min) and a static part (1 × 24 min, 1 × 30 min, 1 × 36 min), each of which was preceded by a low-dose CT to acquire structural data for attenuation correction (AC) and anatomical orientation (Figure 6). Post mortem, the urine was collected by bladder punctuation, weighted, and divided into three 1 mL samples for activity measurements in a gamma-counter (Packard Cobra II 5003 Auto Gamma Counting System, GMI, Ramsey, MN, USA).
PET data reconstruction was done using low-dose CT attenuation correction (AC) and an iterative OSEM algorithm with 4 iterations and 8 subsets. As the PET/CT system is in daily clinical use, it is periodically subjected to detector normalization and activity calibration. Furthermore, all peripheral activity-measuring devices to be used for the investigation (dose calibrator, gamma counter) are cross-calibrated in terms of timing and a radioactivity adjustment.
The image data were analyzed with ROVER (ABX, Radeberg, Germany; v. 3.0.46h). The organs were identified and manually delineated using 3D volumes of interest (VOI). The CT data were used for anatomical orientation and for image registration with the PET data. Relevant source organs like brain, gall bladder, large intestine, small intestine, stomach, heart, kidneys, liver, lungs, pancreas, red marrow (backbone, pelvis, sternum), spleen, thyroid, testes, skeleton (bone), and the urinary bladder were delineated and the time–activity data transformed into percentage of injected dose (%IDorgan) with Equation (2). (2) %IDorgant=Aorgant×cscant/A0t [%] where Aorgant is the activity in the organ at the time t; cscant is a calibration factor representing the theoretical body activity (derived from a whole body mask of a volume that equals the body dimentions of the animal) decay corrected to t and divided by the imaged body activity in each image frame at the time t, and A0t is the injected activity decay corrected to t0.
The dose calculation has been described by our group in detail before. Briefly, due to differences in weight, size, and metabolic rates between the animal species and the human volunteers, it is necessary to map the preclinical extracted biodistribution data to human circumstances. Thus, the animal biokinetic data (time scale and %ID values) were adapted to the human circumstances according to [22] to fit the human weight, size, and metabolic rates (Equations (3) and (4)). (3) thuman=tanimal[mhuman/manimal]^0.25 (4) [%ID]/organhuman=[%ID]/ganimal×mTBanimal[g]/mTBhuman[g]×morganhuman[g]
The TIACs were estimated by exponential fitting and the dosimetry estimation was performed using OLINDA/EXM software (v. 2.1). Finally, organ doses (OD) were estimated and multiplied by tissue weighting factors as published in ICRP103 [20].

SMILES: CCCN(CCC[18F])c1ccc(/C=C(\C#N)C(=O)O)c(OC)c1 [[^18F]FACH, (E)-2-cyano-3-{4-[(3-[^18F]fluoropropyl)(propyl)amino]-2-methoxyphenyl}acrylic acid]
- Effective dose (FACHpig1): 1.25E-02 mSv/MBq
- Effective dose contribution HT wT, Adrenals (FACHpig1): 1.26E-04 mSv/MBq
- Effective dose contribution HT wT, Brain (FACHpig1): 5.61E-05 mSv/MBq
- Effective dose contribution HT wT, Esophagus (FACHpig1): 4.16E-04 mSv/MBq
- Effective dose contribution HT wT, Eyes (FACHpig1): 0.00E+00 mSv/MBq
- Effective dose contribution HT wT, Gallbladder Wall (FACHpig1): 1.12E-04 mSv/MBq
- Effective dose contribution HT wT, Heart Wall (FACHpig1): 9.47E-05 mSv/MBq
- Effective dose contribution HT wT, Kidneys (FACHpig1): 2.47E-04 mSv/MBq
- Effective dose contribution HT wT, Left colon (FACHpig1): 7.77E-04 mSv/MBq
- Effective dose contribution HT wT, Liver (FACHpig1): 3.22E-04 mSv/MBq
- Effective dose contribution HT wT, Lungs (FACHpig1): 9.67E-04 mSv/MBq
- Effective dose contribution HT wT, Osteogenic Cells (FACHpig1): 2.00E-04 mSv/MBq
- Effective dose contribution HT wT, Pancreas (FACHpig1): 5.61E-04 mSv/MBq
- Effective dose contribution HT wT, Prostate (FACHpig1): 7.36E-05 mSv/MBq
- Effective dose contribution HT wT, Rectum (FACHpig1): 3.44E-04 mSv/MBq
- Effective dose contribution HT wT, Red Marrow (FACHpig1): 1.58E-03 mSv/MBq
- Effective dose contribution HT wT, Right colon (FACHpig1): 9.34E-04 mSv/MBq
- Effective dose contribution HT wT, Salivary Glands (FACHpig1): 1.03E-04 mSv/MBq
- Effective dose contribution HT wT, Small Intestine (FACHpig1): 1.74E-04 mSv/MBq
- Effective dose contribution HT wT, Spleen (FACHpig1): 9.48E-05 mSv/MBq
- Effective dose contribution HT wT, Stomach Wall (FACHpig1): 1.71E-03 mSv/MBq
- Effective dose contribution HT wT, Testes (FACHpig1): 4.40E-04 mSv/MBq
- Effective dose contribution HT wT, Thymus (FACHpig1): 9.49E-05 mSv/MBq
- Effective dose contribution HT wT, Thyroid (FACHpig1): 3.21E-04 mSv/MBq
- Effective dose contribution HT wT, Total Body (FACHpig1): 0.00E+00 mSv/MBq
- Effective dose contribution HT wT, Urinary Bladder Wall (FACHpig1): 2.74E-03 mSv/MBq
- Organ equivalent dose HT, Adrenals (FACHpig1): 1.36E-02 mSv/MBq
- Organ equivalent dose HT, Brain (FACHpig1): 5.61E-03 mSv/MBq
- Organ equivalent dose HT, Esophagus (FACHpig1): 1.04E-02 mSv/MBq
- Organ equivalent dose HT, Eyes (FACHpig1): 8.81E-03 mSv/MBq
- Organ equivalent dose HT, Gallbladder Wall (FACHpig1): 1.22E-02 mSv/MBq
- Organ equivalent dose HT, Heart Wall (FACHpig1): 1.03E-02 mSv/MBq
- Organ equivalent dose HT, Kidneys (FACHpig1): 2.67E-02 mSv/MBq
- Organ equivalent dose HT, Left colon (FACHpig1): 1.60E-02 mSv/MBq
- Organ equivalent dose HT, Liver (FACHpig1): 8.05E-03 mSv/MBq
- Organ equivalent dose HT, Lungs (FACHpig1): 8.05E-03 mSv/MBq
- Organ equivalent dose HT, Osteogenic Cells (FACHpig1): 2.00E-02 mSv/MBq
- Organ equivalent dose HT, Pancreas (FACHpig1): 6.08E-02 mSv/MBq
- Organ equivalent dose HT, Prostate (FACHpig1): 1.59E-02 mSv/MBq
- Organ equivalent dose HT, Rectum (FACHpig1): 1.50E-02 mSv/MBq
- Organ equivalent dose HT, Red Marrow (FACHpig1): 1.32E-02 mSv/MBq
- Organ equivalent dose HT, Right colon (FACHpig1): 1.93E-02 mSv/MBq
- Organ equivalent dose HT, Salivary Glands (FACHpig1): 1.03E-02 mSv/MBq
- Organ equivalent dose HT, Small Intestine (FACHpig1): 1.88E-02 mSv/MBq
- Organ equivalent dose HT, Spleen (FACHpig1): 1.03E-02 mSv/MBq
- Organ equivalent dose HT, Stomach Wall (FACHpig1): 1.43E-02 mSv/MBq
- Organ equivalent dose HT, Testes (FACHpig1): 1.10E-02 mSv/MBq
- Organ equivalent dose HT, Thymus (FACHpig1): 1.03E-02 mSv/MBq
- Organ equivalent dose HT, Thyroid (FACHpig1): 8.02E-03 mSv/MBq
- Organ equivalent dose HT, Total Body (FACHpig1): 1.15E-02 mSv/MBq
- Organ equivalent dose HT, Urinary Bladder Wall (FACHpig1): 6.86E-02 mSv/MBq
- Effective dose (FACHpig2): 1.19E-02 mSv/MBq
- Effective dose contribution HT wT, Adrenals (FACHpig2): 1.33E-04 mSv/MBq
- Effective dose contribution HT wT, Brain (FACHpig2): 4.35E-05 mSv/MBq
- Effective dose contribution HT wT, Esophagus (FACHpig2): 3.43E-04 mSv/MBq
- Effective dose contribution HT wT, Eyes (FACHpig2): 0.00E+00 mSv/MBq
- Effective dose contribution HT wT, Gallbladder Wall (FACHpig2): 4.78E-04 mSv/MBq
- Effective dose contribution HT wT, Heart Wall (FACHpig2): 8.50E-05 mSv/MBq
- Effective dose contribution HT wT, Kidneys (FACHpig2): 2.20E-04 mSv/MBq
- Effective dose contribution HT wT, Left colon (FACHpig2): 7.07E-04 mSv/MBq
- Effective dose contribution HT wT, Liver (FACHpig2): 1.11E-03 mSv/MBq
- Effective dose contribution HT wT, Lungs (FACHpig2): 9.55E-04 mSv/MBq
- Effective dose contribution HT wT, Osteogenic Cells (FACHpig2): 2.34E-04 mSv/MBq
- Effective dose contribution HT wT, Pancreas (FACHpig2): 2.11E-04 mSv/MBq
- Effective dose contribution HT wT, Prostate (FACHpig2): 4.73E-05 mSv/MBq
- Effective dose contribution HT wT, Rectum (FACHpig2): 3.17E-04 mSv/MBq
- Effective dose contribution HT wT, Red Marrow (FACHpig2): 1.97E-03 mSv/MBq
- Effective dose contribution HT wT, Right colon (FACHpig2): 1.58E-03 mSv/MBq
- Effective dose contribution HT wT, Salivary Glands (FACHpig2): 7.07E-05 mSv/MBq
- Effective dose contribution HT wT, Small Intestine (FACHpig2): 2.47E-04 mSv/MBq
- Effective dose contribution HT wT, Spleen (FACHpig2): 8.20E-05 mSv/MBq
- Effective dose contribution HT wT, Stomach Wall (FACHpig2): 1.22E-03 mSv/MBq
- Effective dose contribution HT wT, Testes (FACHpig2): 2.83E-04 mSv/MBq
- Effective dose contribution HT wT, Thymus (FACHpig2): 7.07E-05 mSv/MBq
- Effective dose contribution HT wT, Thyroid (FACHpig2): 2.52E-04 mSv/MBq
- Effective dose contribution HT wT, Total Body (FACHpig2): 0.00E+00 mSv/MBq
- Effective dose contribution HT wT, Urinary Bladder Wall (FACHpig2): 1.25E-03 mSv/MBq
- Organ equivalent dose HT, Adrenals (FACHpig2): 1.44E-02 mSv/MBq
- Organ equivalent dose HT, Brain (FACHpig2): 4.35E-03 mSv/MBq
- Organ equivalent dose HT, Esophagus (FACHpig2): 8.58E-03 mSv/MBq
- Organ equivalent dose HT, Eyes (FACHpig2): 6.29E-03 mSv/MBq
- Organ equivalent dose HT, Gallbladder Wall (FACHpig2): 5.18E-02 mSv/MBq
- Organ equivalent dose HT, Heart Wall (FACHpig2): 9.21E-03 mSv/MBq
- Organ equivalent dose HT, Kidneys (FACHpig2): 2.38E-02 mSv/MBq
- Organ equivalent dose HT, Left colon (FACHpig2): 1.46E-02 mSv/MBq
- Organ equivalent dose HT, Liver (FACHpig2): 2.77E-02 mSv/MBq
- Organ equivalent dose HT, Lungs (FACHpig2): 7.96E-03 mSv/MBq
- Organ equivalent dose HT, Osteogenic Cells (FACHpig2): 2.34E-02 mSv/MBq
- Organ equivalent dose HT, Pancreas (FACHpig2): 2.28E-02 mSv/MBq
- Organ equivalent dose HT, Prostate (FACHpig2): 1.02E-02 mSv/MBq
- Organ equivalent dose HT, Rectum (FACHpig2): 1.38E-02 mSv/MBq
- Organ equivalent dose HT, Red Marrow (FACHpig2): 1.64E-02 mSv/MBq
- Organ equivalent dose HT, Right colon (FACHpig2): 3.25E-02 mSv/MBq
- Organ equivalent dose HT, Salivary Glands (FACHpig2): 7.07E-03 mSv/MBq
- Organ equivalent dose HT, Small Intestine (FACHpig2): 2.67E-02 mSv/MBq
- Organ equivalent dose HT, Spleen (FACHpig2): 8.88E-03 mSv/MBq
- Organ equivalent dose HT, Stomach Wall (FACHpig2): 1.01E-02 mSv/MBq
- Organ equivalent dose HT, Testes (FACHpig2): 7.08E-03 mSv/MBq
- Organ equivalent dose HT, Thymus (FACHpig2): 7.66E-03 mSv/MBq
- Organ equivalent dose HT, Thyroid (FACHpig2): 6.30E-03 mSv/MBq
- Organ equivalent dose HT, Total Body (FACHpig2): 9.14E-03 mSv/MBq
- Organ equivalent dose HT, Urinary Bladder Wall (FACHpig2): 3.12E-02 mSv/MBq
- Effective dose (FACHpig3): 1.29E-02 mSv/MBq
- Effective dose contribution HT wT, Adrenals (FACHpig3): 1.35E-04 mSv/MBq
- Effective dose contribution HT wT, Brain (FACHpig3): 4.10E-05 mSv/MBq
- Effective dose contribution HT wT, Esophagus (FACHpig3): 3.24E-04 mSv/MBq
- Effective dose contribution HT wT, Eyes (FACHpig3): 0.00E+00 mSv/MBq
- Effective dose contribution HT wT, Gallbladder Wall (FACHpig3): 8.05E-04 mSv/MBq
